The values that follow come from the NIST ThermoML archive (doi:10.1021/je400487e).

Numbers after ± are expanded uncertainties.

The conditions of the data set: 298.15 K; 101.33 kPa; Liquid; Vibrating tube method.
Take `CCCCCCCCCC` [decane]: the mass density (as a rule, the mass of a sample divided by its volume) is recorded as 726.43 ± 0.26 kg/m3. As for `CCCCCCCCCCCC` [dodecane], the mass density worked out at 741.54 ± 0.26 kg/m3. Then `C1CCCCCCC1` [cyclooctane], with 831.87 ± 0.26 kg/m3; and `CC(=O)N(C)C` [N,N-dimethylethanamide], with 936.88 ± 0.26 kg/m3. Then `CCCCCCCCCCCCCC` [tetradecane], with 759.27 ± 0.26 kg/m3; and `CC(C)CC(C)(C)C` [2,2,4-trimethylpentane], with 687.77 ± 0.26 kg/m3. In the case of `CC1CCCCC1` [methylcyclohexane] it was 764.86 ± 0.26 kg/m3.
